This passage reports IC50 results from patent publication US6924302B2, “Substituted triazole diamine derivatives as kinase inhibitors” (Ortho McNeil Pharmaceutical, Inc., priority 2000, dated 2005).

Assay [1] concerns A375 malignant melanoma. Briefly: Inhibition of Cell Proliferation (14C-thymidine incorporation), A375. To be noted: Homo sapiens, A-375, A375 cell line. The class given is cell-based. In a few lines: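 After seeding at 3000-8000 cells per well and a 24 h rest, compound is added and cells incubate 24 h; radiolabelled thymidine (0.2 uCi/well) then goes in for another 24 h. Washed wells are counted for incorporated 14C, relative to DMSO-only wells.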

The subject of assay [2] is PC-3 prostate adenocarcinoma. Briefly: Inhibition of Cell Proliferation (14C-thymidine incorporation), PC-3. Particulars: Homo sapiens, PC-3 cell line. The format is cell-based. How it is done: The ability of a test compound to inhibit the proliferation of cell growth was determined by measuring incorporation of ^14C-labelled thymidine into newly synthesized DNA within the cells. This method was used on cell lines derived from carcinomas originating from several tissues such as HeLa cervical adenocarcinoma (American Type Culture Collection (ATCC), Virginia, Cat. #CCL-2), A375 malignant melanoma (ATCC CRL-1619), SK-OV-3 ovarian adenocarcinoma (ATCC HTB-77) HCT-116 colon carcinoma (CCL-247), PC-3 prostate adenocarcinoma (ATCC CRL-1435), and MDA-MB-231 (Xenogen Corp.) In this way the effect of a compound on cell growth of cells with many different phenotypes can be determined. Cells were trypsinized and counted and 3000-8000 cells were added to each well of a 96-well CytoStar tissue culture treated scintillating microplate (Amersham #RPNQ0160) in complete medium in a volume of 100 μl. Cells were incubated for 24 hours in complete medium at 37° C. in an atmosphere containing 5% CO2. Next, 1 μl of test compound in 100% DMSO was added to the wells of the plate. DMSO only was added to control wells. Cells were incubated for 24 more hours in complete medium at 37° C. in an atmosphere containing 5% CO2. Methyl ^14C-thymidine 56 mCi/mmol (NEN #NEC568 or Amersham #CFA532) was diluted in complete medium and 0.2 uCi/well was added to each well of the CytoStar plate in a volume of 20 μl. The plate was incubated for 24 hours at 37° C. plus 5% CO2 in drug plus ^14C-thymidine. The contents of the plate were discarded into a ^14C radioactive waste container by inverting the plate and the plate was washed twice with 200 μl PBS. 200 μl of PBS is added to each well. The top of the plate was sealed with a transparent plate sealer and a white plate backing sealer (Packard #6005199) was applied to the bottom of the plate. The degree of methyl ^14C-thymidine incorporation was quantified on a Packard Top Count.
Background: Uptake of a labelled nucleoside into DNA is a usual measure of proliferation.

Assay [3] concerns SK-OV-3 ovarian adenocarcinoma. The assay can be described thus: Inhibition of Cell Proliferation (14C-thymidine incorporation), SK-OV-3. Particulars: Homo sapiens, SK-OV-3 cell line. The format is cell-based. How it is done: (§1) The ability of a test compound to inhibit the proliferation of cell growth was determined by measuring incorporation of ^14C-labelled thymidine into newly synthesized DNA within the cells. […] Cells were trypsinized and counted and 3000-8000 cells were added to each well of a 96-well CytoStar tissue culture treated scintillating microplate (Amersham #RPNQ0160) in complete medium in a volume of 100 μl. Cells were incubated for 24 hours in complete medium at 37° C. in an atmosphere containing 5% CO2. Next, 1 μl of test compound in 100% DMSO was added to the wells of the plate. DMSO only was added to control wells. Cells were incubated for 24 more hours in complete medium at 37° C. in an atmosphere containing 5% CO2. […] The plate was incubated for 24 hours at 37° C. plus 5% CO2 in drug plus ^14C-thymidine. The contents of the plate were discarded into a ^14C radioactive waste container by inverting the plate and the plate was washed twice with 200 μl PBS. 200 μl of PBS is added to each well. […] The degree of methyl ^14C-thymidine incorporation was quantified on a Packard Top Count.

For assay [4], the system named is MDA-MB-231. Briefly: Inhibition of Cell Proliferation (14C-thymidine incorporation), MDA-MB-231. The format is cell-based. Particulars: Homo sapiens, MDA-MB-231 cell line. How it is done: as §1
Assay [5] deals with FGF-R2 (Homo sapiens, UniProt P21802). Briefly: Kinase Selectivity Assay FGF-R2. Particulars: Tables 2a-2k. The format is biochemical. In a few lines: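 Radiometric ^33P-γ-ATP transfer to a biotinylated peptide substrate captured on streptavidin plates; enzyme in 50 mM Tris-HCl pH 8.0, 0.1% BSA, 1% DMSO, 1 h at 30° C.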
Chain of FGF-R2 (P21802 22-821, species assumed): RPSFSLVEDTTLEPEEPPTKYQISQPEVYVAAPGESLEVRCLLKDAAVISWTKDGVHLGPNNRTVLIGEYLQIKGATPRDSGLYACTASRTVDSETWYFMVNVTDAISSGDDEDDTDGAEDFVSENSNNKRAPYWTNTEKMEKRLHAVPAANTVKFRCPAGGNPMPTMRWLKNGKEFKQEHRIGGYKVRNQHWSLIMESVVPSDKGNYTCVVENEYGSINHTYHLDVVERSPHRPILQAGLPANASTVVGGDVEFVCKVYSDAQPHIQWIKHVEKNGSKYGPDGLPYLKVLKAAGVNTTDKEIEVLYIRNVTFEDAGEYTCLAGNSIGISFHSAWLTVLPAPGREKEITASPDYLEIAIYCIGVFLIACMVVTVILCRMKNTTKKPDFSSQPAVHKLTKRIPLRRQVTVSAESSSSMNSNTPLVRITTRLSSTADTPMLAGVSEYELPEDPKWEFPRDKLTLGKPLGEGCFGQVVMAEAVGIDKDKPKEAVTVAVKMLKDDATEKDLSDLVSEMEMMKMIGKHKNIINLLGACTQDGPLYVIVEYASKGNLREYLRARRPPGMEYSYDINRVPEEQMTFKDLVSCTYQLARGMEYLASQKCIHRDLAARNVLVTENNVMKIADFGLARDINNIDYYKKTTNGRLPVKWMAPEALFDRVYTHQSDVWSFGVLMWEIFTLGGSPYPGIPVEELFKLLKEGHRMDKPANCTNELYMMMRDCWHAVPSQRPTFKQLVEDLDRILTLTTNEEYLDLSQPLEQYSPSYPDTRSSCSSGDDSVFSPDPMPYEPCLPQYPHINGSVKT
Assay [6] deals with T1, CDK2 in complex with cyclin A (Homo sapiens, UniProt P24941).
T1 construct: purchased Upstate Biotech
The assay can be described thus: Kinase Selectivity Assay CDK2. Particulars: Table 1. The format is biochemical. In a few lines: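 Inhibition was measured as reduced ^33P-γ-ATP labelling of a biotinylated peptide substrate immobilized on streptavidin plates after one hour at 30° C.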

Structures are written as SMILES.

The term IC50 denotes the concentration that inhibits the measured activity by half. High values mean lower potency, low ones higher potency. Take `Nc1nc(Nc2ccc(S(N)(=O)=O)cc2)nn1C(=O)c1c(F)cccc1F` [Cpd 1, 4-[[5-amino-1-(2,6-difluorobenzoyl)-1H-1,2,4-triazol-3-yl]amino]-benzenesulfonamide]: the IC50 is 447 nM in assay [1], 119 nM in assay [2], 750 nM in assay [3] and 587 nM in assay [4].

Consider `Nc1nc(Nc2ccc(S(N)(=O)=O)cc2)nn1C(=O)c1cccs1` [Cpd 14, 4-[[5-amino-1-(2-thienylcarbonyl)-1H-1,2,4-triazol-3-yl]amino]-benzenesulfonamide], for which the IC50 in assay [1] was found to be 26500 nM; in assay [2], 157 nM; in assay [3], 727 nM; in assay [4], 756 nM; in assay [5] it was 0.027 µM.

As for `Nc1nc(Nc2ccc(S(=O)(=O)N3CCCCC3)cc2)nn1C(=O)c1cccs1` [Cpd 23, N^3-[4-(1-piperidinylsulfonyl)phenyl]-1-(2-thienylcarbonyl)-1H-1,2,4-triazole-3,5-diamine], the IC50 in assay [1] amounted to 424 nM; in assay [2] it was 859 nM; in assay [3], 1420 nM; in assay [4], 868 nM.

Turning to `CCc1ccc(C(=O)n2nc(Nc3ccc(S(N)(=O)=O)cc3)nc2N)s1` [Cpd 32, 4-[[5-amino-1-[(5-ethyl-2-thienyl)carbonyl]-1H-1,2,4-triazol-3-yl]amino]-benzenesulfonamide], the results for the IC50 in assay [2] and in assay [4] were 30 nM and 131 nM, respectively.

Regarding `Cc1nc(C)c(C(=O)n2nc(Nc3ccc(S(N)(=O)=O)cc3)nc2N)s1` [Cpd 34, 4-[[5-amino-1-[(2,4-dimethyl-5-thiazolyl)carbonyl]-1H-1,2,4-triazol-3-yl]amino]-benzenesulfonamide], the values for the IC50 in assay [2] and in assay [4] were 626 nM and 898 nM, respectively.

Turning to `Nc1nc(Nc2ccc(S(N)(=O)=O)cc2)nn1C(=O)c1sccc1Br` [Cpd 35, 4-[[5-amino-1-[(3-bromo-2-thienyl)carbonyl]-1H-1,2,4-triazol-3-yl]amino]-benzenesulfonamide], the IC50 in assay [2] was 231 nM; in assay [4], 1140 nM.

`Nc1nc(Nc2ccc(S(N)(=O)=O)cc2)nn1C(=O)C1CCCC1` [Cpd 38, 4-[[5-amino-1-(cyclopentylcarbonyl)-1H-1,2,4-triazol-3-yl]amino]-benzenesulfonamide]: the IC50 in assay [2] was determined as 2750 nM; in assay [4], 6760 nM.

Consider `Nc1nc(Nc2ccc(S(N)(=O)=O)cc2)nn1C(=O)C1CCCCC1` [Cpd 39, 4-[[5-amino-1-(cyclohexylcarbonyl)-1H-1,2,4-triazol-3-yl]amino]-benzenesulfonamide], for which the values for the IC50 in assay [2] and in assay [4] were 625 nM and 2910 nM, respectively.

In the case of `CNS(=O)(=O)c1ccc(Nc2nc(N)n(C(=O)c3c(F)ccc(C)c3F)n2)cc1` [Cpd 81, 4-[[5-amino-1-(2,6-difluoro-3-methylbenzoyl)-1H-1,2,4-triazol-3-yl]amino]-N-methyl-benzenesulfonamide], the IC50 in assay [1] is 1770 nM; in assay [2], 25 nM; in assay [3], 348 nM; in assay [6], 0.001 µM; in assay [5] it was 0.268 µM.

In the case of `CCc1ccc(C(=O)n2nc(Nc3ccc(S(=O)(=O)NC)cc3)nc2N)s1` [Cpd 84, 4-[[5-amino-1-[(5-ethyl-2-thienyl)carbonyl]-1H-1,2,4-triazol-3-yl]amino]-N-methyl-benzenesulfonamide], the IC50 came out at 23 nM in assay [2], 461 nM in assay [3] and 0.3 µM in assay [5].
